This is an account of results in patent publication US20240158370A1, “CK1 alpha AND DUAL CK1 alpha / GSPT1 DEGRADING COMPOUNDS” (Innovo Therapeutics, Inc., priority 2022, published 2024).

For orientation: DC50 means the concentration at which degradation of the target reaches its halfway point. Read a high DC50 as degradation only at high concentration.

A value given as a limit tells only on which side of the number the result lay.

One assay deals with T1, CK1α (Homo sapiens, UniProt P48729+Q96SW2).
T1 construct: CSNK1A1-HiBit KI HEK293(LgBit) Cells; host or cells: HEK293(LgBit) knock-in cells
Nature of the assay: HiBiT degradation assay, CK1α, Procedure A. Type of assay: cell-based. The method, boiled down: (§1)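 10-pt dose response, 10–0.005 μM, 0.1% DMSO; cells 1×10^6/ml in DMEM/10% FBS, 6 h, 37° C; HiBiT lytic detection, luminescence; DC50 + Ymin by 4-parameter fit.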

The next assay deals with GSPT1 (Homo sapiens, UniProt P15170+Q96SW2). Nature of the assay: HiBiT degradation assay, GSPT1, Procedure A. Type of assay: cell-based. Set-up: HiBit-GSPT1 KI HEK293(LgBit) Cells; host or cells: HEK293(LgBit) knock-in cells. The method, boiled down: as §1
For orientation: The HiBiT peptide binds its large partner to form an active luciferase.

T1 sequence (P48729 whole entry): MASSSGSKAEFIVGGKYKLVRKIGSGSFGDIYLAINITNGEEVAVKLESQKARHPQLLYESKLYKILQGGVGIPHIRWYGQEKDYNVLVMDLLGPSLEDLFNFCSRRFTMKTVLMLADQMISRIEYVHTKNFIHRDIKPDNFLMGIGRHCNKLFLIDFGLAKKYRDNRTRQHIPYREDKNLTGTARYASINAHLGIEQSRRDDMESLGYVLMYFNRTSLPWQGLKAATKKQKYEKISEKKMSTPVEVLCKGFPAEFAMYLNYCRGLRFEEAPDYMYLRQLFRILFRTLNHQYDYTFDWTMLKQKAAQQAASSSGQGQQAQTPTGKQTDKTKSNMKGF
T1 sequence (Q96SW2 whole entry): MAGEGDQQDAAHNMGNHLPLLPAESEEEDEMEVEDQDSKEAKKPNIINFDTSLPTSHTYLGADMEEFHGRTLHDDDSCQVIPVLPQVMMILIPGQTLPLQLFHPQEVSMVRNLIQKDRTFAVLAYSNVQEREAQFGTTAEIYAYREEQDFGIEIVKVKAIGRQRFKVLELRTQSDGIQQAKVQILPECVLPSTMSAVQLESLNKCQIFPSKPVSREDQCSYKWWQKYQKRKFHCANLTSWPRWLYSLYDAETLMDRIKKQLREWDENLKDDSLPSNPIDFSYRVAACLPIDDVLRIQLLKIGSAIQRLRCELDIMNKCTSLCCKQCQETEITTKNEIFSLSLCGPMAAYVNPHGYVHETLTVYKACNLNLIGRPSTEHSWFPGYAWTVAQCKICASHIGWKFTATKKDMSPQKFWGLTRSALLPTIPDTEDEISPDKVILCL
T1 sequence (Q16531 whole entry partner): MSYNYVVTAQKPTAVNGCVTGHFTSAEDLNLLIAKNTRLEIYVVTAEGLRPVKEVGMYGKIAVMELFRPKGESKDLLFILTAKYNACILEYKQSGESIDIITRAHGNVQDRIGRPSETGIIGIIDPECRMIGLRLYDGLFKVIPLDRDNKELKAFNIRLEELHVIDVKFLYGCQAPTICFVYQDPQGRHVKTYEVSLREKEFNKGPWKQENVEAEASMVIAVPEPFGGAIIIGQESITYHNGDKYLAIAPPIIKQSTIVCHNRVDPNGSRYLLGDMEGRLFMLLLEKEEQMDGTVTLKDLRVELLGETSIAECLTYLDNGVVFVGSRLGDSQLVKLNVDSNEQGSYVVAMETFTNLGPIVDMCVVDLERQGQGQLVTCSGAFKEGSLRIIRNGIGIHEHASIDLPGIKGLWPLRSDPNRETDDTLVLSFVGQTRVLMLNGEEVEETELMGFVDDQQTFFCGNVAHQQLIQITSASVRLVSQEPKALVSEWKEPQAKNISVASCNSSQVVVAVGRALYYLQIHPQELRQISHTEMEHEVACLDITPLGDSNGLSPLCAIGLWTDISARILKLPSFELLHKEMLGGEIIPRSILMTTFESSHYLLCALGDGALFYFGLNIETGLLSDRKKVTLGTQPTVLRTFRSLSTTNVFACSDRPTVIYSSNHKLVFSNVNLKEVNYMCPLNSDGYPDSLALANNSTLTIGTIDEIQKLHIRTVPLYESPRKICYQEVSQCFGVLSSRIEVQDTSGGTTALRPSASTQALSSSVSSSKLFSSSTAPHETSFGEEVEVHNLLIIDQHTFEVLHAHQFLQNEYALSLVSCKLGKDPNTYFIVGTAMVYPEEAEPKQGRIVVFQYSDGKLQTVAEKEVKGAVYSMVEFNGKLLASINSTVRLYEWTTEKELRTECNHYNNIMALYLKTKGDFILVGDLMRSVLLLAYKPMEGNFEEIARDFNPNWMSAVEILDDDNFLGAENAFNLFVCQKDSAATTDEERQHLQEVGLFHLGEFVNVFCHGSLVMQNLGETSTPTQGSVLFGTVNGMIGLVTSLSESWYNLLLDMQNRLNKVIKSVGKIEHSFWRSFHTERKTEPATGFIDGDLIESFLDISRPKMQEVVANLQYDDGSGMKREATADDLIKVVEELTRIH
Chain of GSPT1 (P15170 whole entry): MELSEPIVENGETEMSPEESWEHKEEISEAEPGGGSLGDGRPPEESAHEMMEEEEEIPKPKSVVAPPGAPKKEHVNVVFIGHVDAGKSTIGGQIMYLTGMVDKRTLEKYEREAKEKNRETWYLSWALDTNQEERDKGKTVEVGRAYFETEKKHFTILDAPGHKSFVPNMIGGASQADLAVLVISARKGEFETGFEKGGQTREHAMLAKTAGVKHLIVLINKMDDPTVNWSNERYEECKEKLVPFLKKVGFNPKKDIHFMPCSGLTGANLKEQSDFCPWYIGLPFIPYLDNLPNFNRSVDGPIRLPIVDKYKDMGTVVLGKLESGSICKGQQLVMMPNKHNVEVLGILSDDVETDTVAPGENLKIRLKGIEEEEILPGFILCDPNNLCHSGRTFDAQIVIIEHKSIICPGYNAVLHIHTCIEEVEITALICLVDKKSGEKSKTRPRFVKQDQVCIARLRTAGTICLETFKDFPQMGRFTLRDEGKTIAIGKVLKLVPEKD
Chain of GSPT1 (Q96SW2 whole entry): as the sequence (Q96SW2 whole entry) above
Chain of GSPT1 (Q16531 whole entry partner): as the sequence (Q16531 whole entry partner) above

On to `Cn1ncc(-c2ccc3c(c2)CN(C2CCC(=O)NC2=O)C3=O)c1-c1ccc(Cl)c(C#N)c1` (stereo not shown) [Example 119], for which, on CK1α (six hours incubation), the “CK1α Ymin” value was “E (E = >25-75% remaining)” and the DC50 is ≥ 25 nM. Besides, at GSPT1 (six hours incubation), the DC50 was ≥ 25 nM and the “GSPT1 Ymin” value was “F (F = >75-100% remaining)”.

Take `Cc1c[nH]c2cc(-c3c(-c4ccc5c(c4)CN(C4CCC(=O)NC4=O)C5=O)ncn3C)ccc12` (stereo not shown) [Example 512]: at CK1α (six hours), the “CK1α Ymin” value was “C (C = 0-10% remaining)” and the DC50 is < 25 nM. For the same compound, on GSPT1 (six hours), the DC50 was < 25 nM and the “GSPT1 Ymin” value was “F (F = >75-100% remaining)”.

Regarding `Cc1csc(-c2c(-c3ccc4c(c3)CN(C3CCC(=O)NC3=O)C4=O)ncn2C)c1` (stereo not shown) [Example 230], on CK1α (six hours incubation), the “CK1α Ymin” value is on record as “C (C = 0-10% remaining)” and the DC50 was < 25 nM. At GSPT1 (six hours incubation), the half-maximal degradation concentration (DC50) was < 25 nM and the “GSPT1 Ymin” value is reported as “E (E = >25-75% remaining)”.

Consider `Cn1cnc(-c2ccc3c(c2)CN(C2CCC(=O)NC2=O)C3=O)c1-c1ccc(=O)n(C)c1` (stereo not shown) [Example 400], for which, at CK1α (six hours), the “CK1α Ymin” value is recorded as “D (D = >10- 25% remaining)” and the DC50 is ≥ 25 nM. Further, at GSPT1 (six hours), the DC50 was ≥ 25 nM and the “GSPT1 Ymin” value was “F (F = >75-100% remaining)”.

As to `Cn1cnc(-c2ccc3c(c2)CN(C2CCC(=O)NC2=O)C3=O)c1-c1ccc2cnn(C)c2c1` (stereo not shown) [Example 498], on CK1α (six hours), the “CK1α Ymin” value is “D (D = >10- 25% remaining)” and the DC50 is < 25 nM. On GSPT1 (six hours), the DC50 is < 25 nM and the “GSPT1 Ymin” value is reported as “F (F = >75-100% remaining)”.

In the case of `Cn1ncc(-c2ccc3c(c2)CN(C2CCC(=O)NC2=O)C3=O)c1-c1ccc2ccn(C)c2c1` (stereo not shown) [Example 386], on CK1α (six hours), the “CK1α Ymin” value is recorded as “E (E = >25-75% remaining)” and the DC50 is < 25 nM. Further, at GSPT1 (six hours), the DC50 was ≥ 25 nM and the “GSPT1 Ymin” value is reported as “F (F = >75-100% remaining)”.

For the compound `Cn1cnc(-c2ccc3c(c2)CN(C2CCC(=O)NC2=O)C3=O)c1-c1cncnc1` (stereo not shown) [Example 520], on CK1α (six hours), the “CK1α Ymin” value is “E (E = >25-75% remaining)” and the DC50 was ≥ 25 nM. Further, at GSPT1 (six hours), the DC50 was ≥ 25 nM and the “GSPT1 Ymin” value is given as “F (F = >75-100% remaining)”.

Regarding `Cc1occc1-c1c(-c2ccc3c(c2)CN(C2CCC(=O)NC2=O)C3=O)ncn1C` (stereo not shown) [Example 483], on CK1α (six hours), the “CK1α Ymin” value was “D (D = >10- 25% remaining)” and the DC50 is < 25 nM. In addition, on GSPT1 (six hours), the DC50 is < 25 nM and the “GSPT1 Ymin” value is “F (F = >75-100% remaining)”.

As for `Cn1ncc(-c2ccc3c(c2)CN(C2CCC(=O)NC2=O)C3=O)c1C1=CCOC1` (stereo not shown) [Example 593], at CK1α (six hours), the “CK1α Ymin” value is given as “E (E = >25-75% remaining)” and the DC50 was ≥ 25 nM. Besides, at GSPT1 (six hours), the DC50 is ≥ 25 nM and the “GSPT1 Ymin” value was “F (F = >75-100% remaining)”.

`Cn1nc(-c2ccc3c(c2)CN(C2CCC(=O)NC2=O)C3=O)nc1C1CCC(C)(C)CC1` (stereo not shown) [Example 605, 3-(5-(5-(4,4-dimethylcyclohexyl)-1-methyl-1H-1,2,4-triazol-3-yl)-1-oxoisoindolin-2-yl)piperidine-2,6-dione]: at CK1α (six hours), the “CK1α Ymin” value is on record as “E (E = >25-75% remaining)” and the DC50 was < 25 nM. At GSPT1 (six hours), the DC50 is ≥ 25 nM and the “GSPT1 Ymin” value is “F (F = >75-100% remaining)”.

Take `O=C1CCC(N2Cc3cc(-c4cn(C5CC5)c(-c5ccccc5)n4)ccc3C2=O)C(=O)N1` (stereo not shown) [Example 704, 3-(5-(1-cyclopropyl-2-phenyl-1H-imidazol-4-yl)-1-oxoisoindolin-2-yl)piperidine-2,6-dione]: at CK1α (six hours), the “CK1α Ymin” value is listed as “C (C = 0-10% remaining)” and the DC50 is < 25 nM. Besides, on GSPT1 (six hours), the DC50 is ≥ 25 nM and the “GSPT1 Ymin” value is listed as “F (F = >75-100% remaining)”.

On to `COc1ncccc1-c1c(-c2ccc3c(c2)CN(C2CCC(=O)NC2=O)C3=O)cnn1C` (stereo not shown) [Example 377], for which, on CK1α (six hours incubation), the “CK1α Ymin” value is on record as “E (E = >25-75% remaining)” and the DC50 was < 25 nM. In addition, on GSPT1 (six hours incubation), the DC50 was ≥ 25 nM and the “GSPT1 Ymin” value is on record as “F (F = >75-100% remaining)”.

For the compound `Cn1cnc(-c2ccc3c(c2)CN(C2CCC(=O)NC2=O)C3=O)c1-c1cccc2ccccc12` (stereo not shown) [Example 255], at CK1α (six hours incubation), the “CK1α Ymin” value is listed as “E (E = >25-75% remaining)” and the DC50 is < 25 nM. Besides, at GSPT1 (six hours incubation), the DC50 is < 25 nM and the “GSPT1 Ymin” value is “F (F = >75-100% remaining)”.

In the case of `Cn1cc(-c2ccc3c(c2)CN(C2CCC(=O)NC2=O)C3=O)nc1C1CCC(C)(C)CC1` (stereo not shown) [Example 539, 3-(5-(2-(4,4-dimethylcyclohexyl)-1-methyl-1H-imidazol-4-yl)-1-oxoisoindolin-2-yl)piperidine-2,6-dione], at CK1α (six hours), the “CK1α Ymin” value was “E (E = >25-75% remaining)” and the DC50 is < 25 nM. Also, on GSPT1 (six hours), the 50% degradation concentration (DC50) is ≥ 25 nM and the “GSPT1 Ymin” value is recorded as “F (F = >75-100% remaining)”.

On to `Cc1ccc(-c2c(-c3ccc4c(c3)CN(C3CCC(=O)NC3=O)C4=O)cnn2C)s1` (stereo not shown) [Example 215], for which, on CK1α (six hours incubation), the “CK1α Ymin” value is recorded as “D (D = >10- 25% remaining)” and the DC50 is < 25 nM. Besides, at GSPT1 (six hours incubation), the DC50 was ≥ 25 nM and the “GSPT1 Ymin” value is “F (F = >75-100% remaining)”.

For the compound `Cn1nccc1-c1c(-c2ccc3c(c2)CN(C2CCC(=O)NC2=O)C3=O)cnn1C` (stereo not shown) [Example 451], on CK1α (six hours), the “CK1α Ymin” value is “E (E = >25-75% remaining)” and the DC50 was ≥ 25 nM. Moreover, at GSPT1 (six hours), the DC50 is ≥ 25 nM and the “GSPT1 Ymin” value was “F (F = >75-100% remaining)”.

Take `Cc1ccc(Cl)cc1-c1c(-c2ccc3c(c2)CN(C2CCC(=O)NC2=O)C3=O)ncn1C` (stereo not shown) [Example 196]: on CK1α (six hours incubation), the “CK1α Ymin” value is recorded as “E (E = >25-75% remaining)” and the DC50 is < 25 nM. Further, at GSPT1 (six hours incubation), the DC50 is < 25 nM and the “GSPT1 Ymin” value was “F (F = >75-100% remaining)”.

As for `Cn1ncc(-c2ccc3c(c2)CN(C2CCC(=O)NC2=O)C3=O)c1-c1ccc2cnn(C)c2c1` (stereo not shown) [Example 389], at CK1α (six hours), the “CK1α Ymin” value is “E (E = >25-75% remaining)” and the DC50 was < 25 nM. At GSPT1 (six hours), the DC50 is ≥ 25 nM and the “GSPT1 Ymin” value is recorded as “F (F = >75-100% remaining)”.

With `CNC(=O)c1ccc(-c2c(-c3ccc4c(c3)CN(C3CCC(=O)NC3=O)C4=O)ncn2C)cc1` (stereo not shown) [Example 267], at CK1α (six hours incubation), the “CK1α Ymin” value was “C (C = 0-10% remaining)” and the DC50 was ≥ 25 nM. On GSPT1 (six hours incubation), the DC50 is ≥ 25 nM and the “GSPT1 Ymin” value was “F (F = >75-100% remaining)”.

`Cn1ncc(-c2ccc3c(c2)CN(C2CCC(=O)NC2=O)C3=O)c1-c1ccc2ccccc2c1` (stereo not shown) [Example 136]: at CK1α (six hours incubation), the “CK1α Ymin” value was “D (D = >10- 25% remaining)” and the DC50 was < 25 nM. Also, on GSPT1 (six hours incubation), the DC50 is ≥ 25 nM and the “GSPT1 Ymin” value is “F (F = >75-100% remaining)”.

Take `CN(C)C(=O)c1ccc(-c2c(-c3ccc4c(c3)CN(C3CCC(=O)NC3=O)C4=O)cnn2C)cc1` (stereo not shown) [Example 121]: at CK1α (six hours incubation), the “CK1α Ymin” value is on record as “C (C = 0-10% remaining)” and the DC50 is ≥ 25 nM. For the same compound, on GSPT1 (six hours incubation), the DC50 is ≥ 25 nM and the “GSPT1 Ymin” value is “F (F = >75-100% remaining)”.

Turning to `[2H]C([2H])([2H])n1ncc(-c2ccc3c(c2)CN(C2CCC(=O)NC2=O)C3=O)c1-c1ccc(OC)cc1` (stereo not shown) [Example 433, 3-(5-(5-(4-methoxyphenyl)-1-(methyl-d3)-1H-pyrazol-4-yl)-1-oxoisoindolin-2-yl) piperidine-2,6-dione], at CK1α (six hours), the “CK1α Ymin” value was “C (C = 0-10% remaining)” and the DC50 is < 25 nM. In addition, on GSPT1 (six hours), the DC50 was ≥ 25 nM and the “GSPT1 Ymin” value is listed as “F (F = >75-100% remaining)”.
